The source of these data is paper PMC9474773, “PARP targeted Auger emitter therapy with [^125I]PARPi-01 for triple-negative breast cancer” (EJNMMI Research, 2022).

The test system of one data set is cytochrome P450 (CYP450). More on the design: method as in PMID 28736501, PMID 29717476. To be noted: cited from earlier work.
On the set-up of data set [1]: method as in PMID 29630818. To be noted: cited from earlier work.
Details of data set [2]: method as in PMID 27169564. The following applies: cited from earlier work.
On the set-up of data set [3]: method as in PMID 34318678. To be noted: intracellular distribution not considered; cited from earlier work.
Data set [4] concerns subcutaneous MDA-MB-231 tumours. Nature of the data set: Small animal SPECT/CT imaging. The class given is in vivo, NOD/SCID mice. As to the method: Imaging was performed with a small animal SPECT/CT system (X-Cube and γ-Cube, Molecubes, Gent, Belgium). Mice bearing subcutaneous MDA-MB-231 tumours upon reaching tumour volume of 500 mm^3 were intravenously administered with [^123I]PARPi-01 (9.3 ± 2.7 MBq) via lateral tail-vein using a catheter under 1.5 to 2.5% isoflurane anaesthesia in oxygen at 0.8 L/min. [^123I]PARPi-01 was prepared by diluting the tracer in 0.9% NaCl to a total volume of 100 μL. Administered dose was calculated by subtraction of decay-corrected syringe activity post-injection from pre-injection activity. The mice were scanned either at 4 h or at 24 h post injection (p.i.). The CT acquisition settings were as follows: default high resolution protocol, 440 uA, 50 kVp, 32 ms exposure time, and 1080° rotation in a spiral mode with 960 exposures/360°; the duration of each CT scan was 5 min. A SPECT scan was initiated at the end of each CT scan. The SPECT acquisition settings were as follows: 7-headed camera equipped with a general-purpose collimator with 28 pinholes (i.e., 0.75 mm apertures and a radius of rotation of 20 mm), helical scan with 82 bed positions; the total duration of each SPECT scan was 30 min. Both CT and SPECT axial fields of view were selected at 105 mm. During the scans, the isoflurane concentration was adapted to achieve a respiratory rate between 75 and 50 breaths per minute. […]

The subject of data set [5] is subcutaneous MDA-MB-231 xenografts. Nature of the data set: Ex vivo biodistribution by gamma counter. In kind it is in vivo, NOD/SCID mice. As to the method: Female NOD/SCID mice at 5–6 weeks of age (Janvier, France) was used for developing subcutaneous TNBC tumour. Animals were housed in 20–24 °C in a 12 h day light cycle. For each mouse, 3 × 10^6 MDA-MB-231 cells were suspended in a 1:1 (volume) mixture of Culture media: Matrigel® matrix (Corning®, Product No: 356237). Mice were inoculated with this cell suspension (max 200 µl) subcutaneously in the right flank. Tumour growth was monitored daily using calliper measurements. Tumour volume was calculated daily according to the formula Tumourvolume=TumourLength×Tumourbreadth^2×0.52
Upon reaching of a tumour volume of 500 mm^3, animals were proceeded for experiments. For biodistribution study animals were administered with [^123I]PARPi-01 (n = 3). For therapy studies animals were randomized for control (n = 10) or [^125I]PARPi-01 administration (n = 10). Randomisation was done based on equivalent distribution of tumour volumes. In addition to the daily calliper measurements image analysis of CT based tumour volumes was blinded to avoid bias. Animals were sacrificed upon completion of biodistribution study or upon reaching a humane end point for the therapy study. Humane end point is determined as reaching of either of the following conditions: 15 mm tumour diameter, 1500 mm^3 tumour volume, or development of ulcers/ascites.
For biodistribution, animals imaged at 4 h p.i. were killed 24 h p.i., while the ones scanned 24 h p.i. were killed 5 days p.i.. Subsequently, organs were excised, weighed, and assayed for radioactivity in a gamma counter. Mean tumour and organ uptake was determined from decay-corrected tissue radioactivity normalized to injected dose and tissue sample weight (%ID/g tissue wet weight).

Where [6] appears, read: 24 h p.i., i.v., decay-corrected, n = 3.

Several values for one entry are separate records, joined by “and”; a condition that tells them apart may be missing. Equal entries are not always repeated.

Consider `O=C(c1cc(Cc2n[nH]c(=O)c3ccccc23)ccc1F)N1CCN(C(=O)C2CC2)CC1` [Olaparib], for which the “fraction metabolised in liver by CYP450” value in the data set with cytochrome P450 (CYP450) is 84%. In addition, the “Log Poct” value in data set [1] is given as 1.95. For the same molecule, in data set [2], the dose limiting toxicities entry is “anaemia, thrombocytopenia, and neutropenia”.
Regarding `O=C(c1cccc([123I])c1)N1CCN(C(=O)c2cc(Cc3n[nH]c(=O)c4ccccc34)ccc2F)CC1` [[^123I]MAPi], in data set [3], the “estimated absorbed dose in liver” value is reported as 0.0044 Gy/MBq and the “estimated absorbed dose in thyroid” value is listed as 0.0041 Gy/MBq.
Take `O=C(c1ccc([123I])cc1)N1CCN(C(=O)c2cc(Cc3n[nH]c(=O)c4ccccc34)ccc2F)CC1` [[^123I]PARPi-01]: in data set [4] (4 h and 24 h p.i.), the clearance pathway result is “hepatobiliary clearance”. Also, the “deiodination in vivo (thyroid uptake)” value in data set [4] (24 h p.i.) was “strong deiodination”. The “Tumour: Blood Ratio” value in data set [5] (24 h p.i.) came to 1.3. Further, in data set [5] (setting [6]), the liver uptake is 2.5 %ID/g and 2.49 ± 0.6 %ID/g; the tumour uptake is recorded as 0.2 %ID/g. For the same molecule, the “activity in organs of animals sacrificed at 5 d p.i.” value in data set [5] (5 d p.i.) was “no quantifiable activity”.
